{"source": "patent US10881648B2", "about": "“Combination therapy including an MDM2 inhibitor and one or more additional pharmaceutically active agents for the treatment of cancers” (AMGEN INC., priority 2013, dated 2021)", "tested_on": "A204 cells", "assay": "Two-way combination growth inhibition, CellTiter-Glo cell viability, 72 h, Loewe additivity analysis", "type": "cell-based", "conditions": "FIG. 1a, compound crossed with itself (A×A, 1×1)", "protocol": "Cell lines were purchased from American Type Culture Collection (ATCC), German Collection of Microorganisms and Cell Cultures (DSMZ), and Japanese Collection of Research Bioresources (JCRB). Each line was cultured in its recommended growth medium. Cell line A375sq2 was made in accordance with the procedure set forth in J. Med. Chem. 2009, 52, 6189-6192, footnote 13.\nFor Examples 1 to 71, cells were seeded into 384-well cell culture plates at initial densities ranging from 300 to 7500 cells per well in a 30 μL volume, depending on the growth rate of the cell line, so that adherent cells would remain at subconfluent densities by the end of the 72-hour treatment period. […] CellTiter-Glo® Luminescent Cell Viability Assay (Promega; Madison, Wis.) was used to determine the number of viable cells based on quantitation of the amount of ATP present, an indicator of metabolically active cells. Luminescence was measured with an EnVision® Multilabel Reader (Perkin Elmer; Waltham, Mass.) for each cell line at time zero (V0) before the addition of compounds, as well as after 72 hours of compound treatment (T72). Growth inhibition (GI) was calculated according to the following equations, where V72 was luminescence of DMSO control at 72 hours and T72 was luminescence of the compound-treated sample: if T72≥V0, then GI=100×(1−((T72−V0)/(V72−V0))); if T72<V0, then […]. […]"}
{"smiles": "CC(C)[C@@H](CS(=O)(=O)C(C)C)N1C(=O)[C@@](C)(CC(=O)O)C[C@H](c2cccc(Cl)c2)[C@H]1c1ccc(Cl)cc1", "note": "[Compound A, 2-((3R,5R,6S)-5-(3-chlorophenyl)-6-(4-chlorophenyl)-1-((S)-1-(isopropylsulfonyl)-3-methylbutan-2-yl)-3-methyl-2-oxopiperidin-3-yl)acetic acid]", "values": [{"measurement": "synergy score for the self-cross combination", "result": 0.621}]}
